In US5445941A, “Method for screening anti-osteoporosis agents” (Eli Lilly and Company, priority 1993, dated 1995):

How the values were obtained:
[1] = test system: estrogen responsive elements; details: in vitro; cited from earlier work
[2] = test system: LDL receptor messenger RNA; details: in vivo; cited from earlier work
[3] = test system: TGFβ-3 promoter; assay: TGFβ-3 promoter transcription in RL59.2, HeLa and COS-1 cells; assay type: cell-based, human; details: RL59.2, HeLa and COS-1 (monkey kidney) cells
Method: Similar assays were performed in human endometrial cancer cells (RL59.2), human cervical cancer cells (HeLa) and monkey kidney cells (COS-1) (American Type Culture Collection, Rockville, Md.).

[4] = test system: TGFβ-2 mRNA; details: T-47D and MDA-MB-231; cited from earlier work
[5] = test system: estrogen responsive element (ERE) of the vitellogenin promoter; assay: Luciferase reporter induction, pGL2ERELUC (vitellogenin ERE) and pRSVER in MG63 cells; assay type: cell-based, human; details: for reporter gene expression, pGL2ERELUC: control 1.7
Text: Complementary oligonucleotides corresponding to the estrogen-responsive element (ERE) from the Xenopus laevis vitellogenin Az gene promoter (corresponding to positions -341 to -310; Metzger et al., 1988, Nature 334: 31-36) were designed, synthesized and annealed to form a double-stranded region that is an estrogen responsive element essentially as described in Example I. A sequence comprising an XhoI restriction enzyme recognition site was synthesized to be flanking the ERE sequences, the element having the following nucleotide sequence (shown as SEQ ID NOS:8 and 9, respectively):
The double-stranded ERE was subcloned into XhoI-digested […] (Promega) whereby the luciferase gene was placed under the transcriptional influence of the ERE. This plasmid was designated pGL2ERELUC and used in further experiments as described below (Example VI).
Similar assays were performed using cultures of MG63 cells transiently transfected with pGL2ERELUC and pRSVER.
Transfected cells were treated with varying amounts and combinations of hormones and then rinsed twice with D-PBS. Cells were then lysed upon incubation with 250 μL of eukaryotic cell lysis reagent (as described in Example VI) at 4° C. for 20 min and transferred to microcentrifuge tubes by scraping with a rubber policeman. Cell lysates were centrifuged at 14,000 rpm for 1 minute to remove cell debris. Cell extracts (supernatant) were then assayed for protein content and luciferase activities.
Luciferase assays were performed as follows. 50 μL of each cell extract was added to 100 μL of reagent A buffer (containing 4.0 mM ATP/15 mM MgSO4 / 30 mM tricine buffer (pH 7.8)/ 10 mM DTT) in individual wells of a microtiter plate. 100 μL of 1 mM D(-)-luciferin (in 0.1M KPO4 (pH 7.8); Boehringer Mannheim) were added to each well and the amount of light produced measured by using a ML3000 microtiter plate luminometer (under conditions of integrate flash mode, high gain, integrate window=10 seconds, at a temperature of 22° C.). Luciferase activities were calculated as total light output relative to protein content in each cell lysate sample.

[6] = test system: TGFβ-1 promoter; assay: CAT reporter expression, TGFβ-1 promoter (phTG12), MG63 cells cotransfected with pRSVER
Method: Co-transfection experiments were performed in MG63 (human osteosarcoma) cells, using the ProFection Mammalian Transfection System (Promega). […] The cells were then refed with fresh 3:1 media containing 10% csFBS. Compounds to be evaluated for their ability to modulate reporter gene expression were added at the appropriate times and assayed as described below.
Cultures of MG63 cells were transiently co-transfected with pRSVER plasmid and either phTG12, pTGF-1, or pB2-499 using the ProFection system (Promega). For each transfected cell culture, DNA-containing calcium phosphate precipitates were added dropwise to each culture dish and mixed thoroughly in the media. The pH of the media was carefully maintained between pH 7.2 and pH 7.4. Transfected cell cultures were then incubated overnight in a 5% CO2 atmosphere at 37° C. For all cultures, the precipitate was removed after overnight incubation by aspirating the media from the culture dishes, followed by rinsing each dish twice with D-PBS. For each cotransfected cell line, the buffer was replaced with 10 ml fresh medium containing 10% csFBS and one of the following compositions:
a. 10 μl ethanol (hormone vehicle)=control;
b. 10 μl 17β-estradiol (Sigma) ("estradiol") at a concentration of 10^-4 M in ethanol;
d. 10 μl Tamoxifen (Sigma) at a concentration of 10^-4 M in ethanol.
After 24 h incubation with these hormonal preparations (or the vehicle control), cells were washed twice with D-PBS. The cells were then scraped from the culture dishes using a rubber policeman and 1 ml of D-PBS. Cells were collected by centrifugation at 8,000 rpm for 2 minutes in a tabletop centrifuge (MicroMax Model, IEC, Newark, N.Y.). The supernatant was removed and the cell pellets were resuspended in 150 μL of a 0.25M Tris-HCl solution (pH 7.8). Cells were lysed by three cycles of freezing in a dry ice/ethanol bath and thawing in a water bath at 37° C. water bath (for 3 minutes each cycle). Lysed cell preparations were centrifuged at 15,000 rpm for 5 minutes at 4° C. to remove cell debris. Supernatants containing the soluble cell lysate were transferred to a new set of tubes for assaying chloramphenicol acetyltransferase (CAT) activity.
Before performing CAT assays on such cell lysates, the protein content of each lysate was first determined using a commercially-available assay (BioRad Laboratories, Richmond, Calif.). An amount of each cell lysate containing 100 μg total protein was then mixed with CAT assay buffer (0.4M Tris-HCl (pH 7.8)/ 0.5 mM acetyl-CoA (Boehringer Mannheim)/ 0.1 μCi D-threo-(dichloroacetyl-1,2-[^14 C]-chloramphenicol) for 15 hours. After this incubation, reactions were stopped by vigorously extracting the reaction mixture with 900 μL ethyl acetate. The organic and aqueous phases were separated by brief centrifugation at 14,000 rpm for 1 minute, and approximately 800 μL of the organic phase was transferred to a new set of tubes. Ethyl acetate was evaporated to concentrate the CAT-catalyzed reaction products.
Acetylated and unacetylated chloramphenicol species were resolved by thin layer chromatography using a mixture of 95:5 (v/v) chloroform:methanol as the ascending buffer.

SMILES: C[C@]12CC[C@@H]3c4ccc(O)cc4CC[C@H]3[C@@H]1CC[C@@H]2O [estradiol, 17β-estradiol]
- binding of estrogen receptor complex to estrogen responsive elements (in words) [1]: bind in vitro to DNA binding domains called estrogen responsive elements
- LDL receptor messenger RNA (in words) [2]: induces LDL receptor messenger RNA in vivo
- transcription initiated by the TGFβ-3 promoter (in words) [3]: induced
- TGFβ-2 mRNA expression (in words) [4]: reduced TGFβ-2 mRNA expression
- induction of vitellogenin gene transcription (in words) [5]: strongly induced
- reporter gene expression, pGL2ERELUC ([5]; 10^-5 M): 6.5
- reporter gene expression, pGL2ERELUC ([5]; 10^-6 M): 6.2
- reporter gene expression, pGL2ERELUC ([5]; 10^-7 M): 5.9
- reporter gene expression, pGL2ERELUC ([5]; 10^-8 M): 5.5
- reporter gene expression, pGL2ERELUC ([5]; 10^-9 M): 5.8
- fold induction at 0.1 µM ([6]; Homo sapiens, MG-63, 24 h, read-out: Fold Ind.): 0.7
- Act. (relative CAT activity) ([6]; TGFβ-1 promoter, 10 μl of 10^-4 M in 10 ml medium, 24 h, control […]): 4.7
- response of the TGFβ-1 promoter region (in words) ([6]; positions -1032 to +727): no response
